Measurements taken from PMC11957517, “Efficient production of hydroxysalidroside in Escherichia coli via enhanced glycosylation and semi-rational design of UGT85A1” (Synthetic and Systems Biotechnology, 2025).

Key:
UGT13 = target: T1, UGT13 (Oryza sativa, UniProt Q6Z684); test: whole-cell conversion in E. coli, HPLC; type: cell-based; settings: intracellular UDPG, pgm and galU overexpressed, 48 h
T1 construct: synthesized gene in pETDuet-1, E. coli BL21(DE3) whole cells with pCDFDuet-pgm-galU
T1 sequence (Q6Z684 1-485): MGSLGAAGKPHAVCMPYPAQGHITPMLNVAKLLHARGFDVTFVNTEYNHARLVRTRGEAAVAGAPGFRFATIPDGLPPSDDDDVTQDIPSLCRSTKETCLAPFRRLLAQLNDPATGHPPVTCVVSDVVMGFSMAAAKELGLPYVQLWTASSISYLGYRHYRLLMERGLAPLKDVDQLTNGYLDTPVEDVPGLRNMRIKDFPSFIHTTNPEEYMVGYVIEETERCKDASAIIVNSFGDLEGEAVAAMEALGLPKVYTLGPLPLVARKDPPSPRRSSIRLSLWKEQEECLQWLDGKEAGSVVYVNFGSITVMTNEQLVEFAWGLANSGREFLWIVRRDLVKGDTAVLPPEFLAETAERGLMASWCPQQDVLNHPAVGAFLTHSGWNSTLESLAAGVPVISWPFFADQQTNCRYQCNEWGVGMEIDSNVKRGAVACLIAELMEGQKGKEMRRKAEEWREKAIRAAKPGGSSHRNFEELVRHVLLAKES

UGT33 = target: T2, UGT33 (Rhodiola rosea, UniProt A0A2I6B3R9); test: whole-cell conversion in E. coli, HPLC; type: cell-based; settings: intracellular UDPG, pgm and galU overexpressed, 48 h
T2 construct: synthesized gene in pETDuet-1, E. coli BL21(DE3) whole cells with pCDFDuet-pgm-galU
T2 sequence (A0A2I6B3R9 1-498): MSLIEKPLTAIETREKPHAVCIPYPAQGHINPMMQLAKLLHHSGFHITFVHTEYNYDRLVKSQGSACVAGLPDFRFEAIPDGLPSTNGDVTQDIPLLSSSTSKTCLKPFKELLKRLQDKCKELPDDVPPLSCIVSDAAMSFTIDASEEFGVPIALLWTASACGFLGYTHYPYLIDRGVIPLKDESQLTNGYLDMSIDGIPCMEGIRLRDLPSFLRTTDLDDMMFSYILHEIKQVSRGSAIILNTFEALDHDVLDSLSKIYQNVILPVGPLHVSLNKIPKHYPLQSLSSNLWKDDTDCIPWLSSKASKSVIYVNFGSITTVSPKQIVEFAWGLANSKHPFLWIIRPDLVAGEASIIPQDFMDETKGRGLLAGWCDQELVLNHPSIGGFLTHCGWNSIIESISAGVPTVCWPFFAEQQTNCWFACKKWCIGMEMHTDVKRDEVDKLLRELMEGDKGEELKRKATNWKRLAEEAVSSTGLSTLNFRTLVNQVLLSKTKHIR

With `OCCc1ccc(O)c(O)c1` [hydroxytyrosol] the “whole-cell conversion in E. coli, HPLC” value (UGT13) was “all these enzymes could catalyze the synthesis of hydroxysalidroside” and the “whole-cell conversion in E. coli, HPLC” value (UGT33) was “all these enzymes could catalyze the synthesis of hydroxysalidroside”.
